Laboratory results reported in patent US12606541B2, “PPARg modulators and methods of use” (Eisai R&D Management Co., Ltd., priority 2020, dated 2026).
Where two headings read alike, the source gives them in different places.

Tests used:
His6-TEV-PPARγ-(234-505) = molecular target: T1, His6-TEV-PPARγ-(234-505) (Homo sapiens, UniProt P37231); assay: TR-FRET Assay to Measure Co-R Peptide Recruitment to PPARγ; format: biochemical; conditions: Co-R peptide (SMRT-ID2) recruitment; top final concentration 20 μM; read-out: TR-FRET i-Ag; AC50
T1 construct: The His6-TEV-PPARγ-(234-505) protein for assay was expressed and purified; TEV cleavage site (N); made in house
T1 sequence (P37231 234-505): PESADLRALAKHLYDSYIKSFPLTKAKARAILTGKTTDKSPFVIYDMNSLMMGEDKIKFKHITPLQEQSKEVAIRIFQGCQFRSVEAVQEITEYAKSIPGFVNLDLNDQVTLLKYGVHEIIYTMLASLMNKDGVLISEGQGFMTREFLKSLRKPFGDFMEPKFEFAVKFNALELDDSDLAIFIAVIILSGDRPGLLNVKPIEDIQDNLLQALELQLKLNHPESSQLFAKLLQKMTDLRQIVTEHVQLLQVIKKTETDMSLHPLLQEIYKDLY
How it was run: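 His-tagged PPARγ (or controls) was preincubated with compound for 20 minutes at room temperature, then 5 nM anti-His terbium antibody and 200 nM FITC-labeled SMRT-ID2 corepressor peptide (final) were added for a further hour. TR-FRET signal was normalized to percent response using 500 nM T0070907 and DMSO controls.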

UM-UC-9 engineered cells = assay: Cell proliferation / short-term viability assay, CellTiter-Glo 144 h; format: cell-based, human; conditions: read-out: CTGlo 144 h UMUC9.5, G150
How it was run: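 UM-UC-9 engineered assay-ready cells seeded at 500 cells/well in high-glucose DMEM/10% FBS, treated from dose-response plates, grown at 37° C, 5% CO2. CellTiter-Glo 2.0 luminescence read on day 7, with a day-0 pretreatment plate as T0 reference and DMSO wells as negative control.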

Row | Compound | AC50 (His6-TEV-PPARγ-(234-505)) | IC50 (UM-UC-9 engineered cells; Homo sapiens, UM-UC-9, 144 h) | IC50 (UM-UC-9 engineered cells)
1 | COc1cc(-c2cc(C(=O)N3CCC(C(=O)N[C@H]4CC[C@](C)(O)CC4)CC3)n[nH]2)c(Cl)cn1 [Example 198, 1-(5-(5-chloro-2-methoxypyridin-4-yl)-1H-pyrazole-3-carbonyl)-N-((1r,4r)-4-hydroxy-4-methylcyclohexyl)piperidine-4-carboxamide] | 917 nM | 4160 nM | –
2 | COc1cc(-c2cc(C(=O)N3CCC(C(=O)NCc4cn5c(C)cccc5n4)CC3)n[nH]2)c(Cl)cn1 [Example 210, 1-(5-(5-chloro-2-methoxypyridin-4-yl)-1H-pyrazole-3-carbonyl)-N-((5-methylimidazo[1,2-a]pyridin-2-yl)methyl)piperidine-4-carboxamide] | 259 nM | 1680 nM | –
3 | COc1cc(-c2cc(C(=O)N3CCC(C(=O)NCC45CCC(O)(C4)C5)CC34CC4)n[nH]2)c(F)cn1 (centres unmarked) [Example 335, 4-(5-(5-fluoro-2-methoxypyridin-4-yl)-1H-pyrazole-3-carbonyl)-N-((4-hydroxybicyclo[2.1.1]hexan-1-yl)methyl)-4-azaspiro[2.5]octane-7-carboxamide] | 417 nM | 6150 nM | –
4 | COc1cc(-c2cc(C(=O)N3CC[C@H](C(=O)N[C@H]4CC[C@@](O)(C(F)(F)F)CC4)CC34CC4)n[nH]2)c(Cl)cn1 (single isomer, unassigned) [Example 286-B] | 2.2 nM | 1.5 nM | –
5 | COc1cc(-c2cc(C(=O)N3CCC(C(=O)NC4CC(=O)N(c5ccccc5)C4)CC3)n[nH]2)c(Cl)cn1 (centres unmarked) [Example 183, 1-(5-(5-chloro-2-methoxypyridin-4-yl)-1H-pyrazole-3-carbonyl)-N-(5-oxo-1-phenylpyrrolidin-3-yl)piperidine-4-carboxamide] | 233 nM | 1650 nM | –
6 | COc1cc(-c2cc(C(=O)N3[C@@H]4CC[C@H]3C[C@H](C(=O)NCc3ccc5[nH]nc(F)c5c3)C4)n[nH]2)c(F)cn1 [Example 258, (1R,3S,5S)—N-[(3-fluoro-1H-indazol-5-yl)methyl]-8-[5-(5-fluoro-2-methoxypyridin-4-yl)-1H-pyrazole-3-carbonyl]-8-azabicyclo[3.2.1]octane-3-carboxamide] | 17 nM | 20 nM | –
7 | COc1cc(-c2cc(C(=O)N3CCC(C(=O)NCc4ncc(C(F)(F)F)cn4)CC3)n[nH]2)c(Cl)cn1 [Example 211, 1-(5-(5-chloro-2-methoxypyridin-4-yl)-1H-pyrazole-3-carbonyl)-N-((5-(trifluoromethyl)pyrimidin-2-yl)methyl)piperidine-4-carboxamide] | 462 nM | 3260 nM | –
8 | COc1cc(-c2cc(C(=O)N3CCC(C(=O)NCc4cccc(F)c4F)CC3)n[nH]2)c(Cl)cn1 [Example 155, 1-(5-(5-chloro-2-methoxypyridin-4-yl)-1H-pyrazole-3-carbonyl)-N-(2,3-difluorobenzyl)piperidine-4-carboxamide] | 103 nM | 122 nM | –
9 | (2S,4R)-1-(5-(5-fluoro-2-methoxypyridin-4-yl)-1H-pyrazole-3-carbonyl)-N-((1r,4R)-4-hydroxy-4-(trifluoromethyl)cyclohexyl)-2-(trifluoromethyl)piperidine-4-carboxamide and (2S,4S)-1-(5-(5-fluoro-2-methoxypyridin-4-yl)-1H-pyrazole-3-carbonyl)-N-((1r,4S)-4-hydroxy-4-(trifluoromethyl)cyclohexyl)-2-(trifluoromethyl)piperidine-4-carboxamide [Example 367] | 22 nM | – | 12 nM
10 | COc1cc(-c2cc(C(=O)N3CCC(C(=O)NC4CCC(C)(C)N(C)C4)CC34CC4)n[nH]2)c(F)cn1 (mixture of isomers) [Example 424, (S)-4-(5-(5-fluoro-2-methoxypyridin-4-yl)-1H-pyrazole-3-carbonyl)-N—((R)-1,6,6-trimethylpiperidin-3-yl)-4-azaspiro[2.5]octane-7-carboxamide and (S)-4-(5-(5-fluoro-2-methoxypyridin-4-yl)-1H-pyrazole-3-carbonyl)-N—((S)-1,6,6-trimethylpiperidin-3-yl)-4-azaspiro[2.5]octane-7-carboxamide] | 942 nM | – | 1950 nM
